Where two headings read alike, the source gives them in different places.
Assays:
Assay in all cases: MIC and MBC testing, broth microdilution
[1] = system: S. aureus ATCC 29213; assay type: cell-based, Staphylococcus aureus; conditions: S. aureus ATCC 29213; for MIC: 18 h
Source text: (§1) The minimum inhibitory concentrations (MICs) and minimum bactericidal concentrations (MBCs) of the synthesized compounds effective against ESKAPE strains, S. aureus clinical isolates, and MRSA were investigated by the broth dilution method. Levofloxacin is a broad-spectrum antibacterial agent that is widely used in the treatment of ESKAPE infections. Therefore, levofloxacin was selected as the positive control for the preliminary activity screening. DMSO (0.1%) was selected as the negative control.
(§2) The minimum inhibitory concentration (MIC) of all synthesized compounds was tested by the broth microdilution method. In brief, compounds dissolved in DMSO were diluted twice continuously in a 96-well plate with MH broth. The ESKAPE pathogens (E. coli ATCC 25922, S. aureus ATCC 29213, K. pneumoniae ATCC 700603, A. baumannii ATCC 19606, P. aeruginosa ATCC 27853, and E. faecium ATCC 35667), clinical S. aureus isolates (LMY45, LMY46, LMY47, and LMY48) and methicillin-resistant Staphylococcus aureus (MRSA-1 and MRSA-2) were cultured in MH broth to logarithmic growth phase and then diluted to 1 × 10^6 CFU/mL in MH broth. Subsequently, the diluted bacterial solution was mixed with the diluted compound solution in a 96-well plate and incubated at 37 °C for a duration of 18 h. The MIC of the compounds was recorded as the lowest concentration at which no visible growth was observed. […] Each concentration was replicated thrice.

[2] = system: E. faecium ATCC 35667; assay type: cell-based, Enterococcus faecium; conditions: E. faecium ATCC 35667; for MIC: 18 h
Source text: as §1, §2

[3] = system: MRSA-2; assay type: cell-based, Staphylococcus aureus; conditions: MRSA-2; for MIC: 18 h
Method: (§3) Furthermore, the MBC values of the compounds were detected.
as §2, with “h.” for “h. The MIC of the compounds was recorded as the lowest concentration at which no visible growth was observed.”

[4] = system: clinical S. aureus isolate LMY47; assay type: cell-based, Staphylococcus aureus; conditions: LMY47; for MIC: 18 h
Method: as §3
as §2, with “h.” for “h. The MIC of the compounds was recorded as the lowest concentration at which no visible growth was observed.”

[5] = system: MRSA-1; assay type: cell-based, Staphylococcus aureus; conditions: MRSA-1; for MIC: 18 h
Method: as §3
as §2, with “h.” for “h. The MIC of the compounds was recorded as the lowest concentration at which no visible growth was observed.”

[6] = system: clinical S. aureus isolate LMY46; assay type: cell-based, Staphylococcus aureus; conditions: LMY46; for MIC: 18 h
Method: as §3
as §2, with “h.” for “h. The MIC of the compounds was recorded as the lowest concentration at which no visible growth was observed.”

[7] = system: clinical S. aureus isolate LMY48; assay type: cell-based, Staphylococcus aureus; conditions: LMY48; for MIC: 18 h
Method: as §3
as §2, with “h.” for “h. The MIC of the compounds was recorded as the lowest concentration at which no visible growth was observed.”

[8] = system: clinical S. aureus isolate LMY45; assay type: cell-based, Staphylococcus aureus; conditions: LMY45; for MIC: 18 h
Method: as §3
as §2, with “h.” for “h. The MIC of the compounds was recorded as the lowest concentration at which no visible growth was observed.”

[9] = system: K. pneumoniae ATCC 700603; assay type: cell-based, Klebsiella pneumoniae
Source text: as §1, §2

[10] = system: P. aeruginosa ATCC 27853; assay type: cell-based, Pseudomonas aeruginosa; conditions: for MBC: ATCC27853, read-out: MBC
Source text: as §1, §2

[11] = system: A. baumannii ATCC 19606; assay type: cell-based, Acinetobacter baumannii
Source text: as §1, §2

[12] = system: E. coli ATCC 25922; assay type: cell-based, Escherichia coli
Source text: as §1, §2

[13] = Staphylococcus aureus, ATCC29213, read-out: MIC
[14] = Staphylococcus aureus, ATCC29213, read-out: MBC
[15] = Enterococcus faecium, ATCC35667, read-out: MIC
[16] = Enterococcus faecium, ATCC35667, read-out: MBC
[17] = Staphylococcus aureus, read-out: MIC
[18] = Staphylococcus aureus, read-out: MBC
[19] = Klebsiella pneumoniae, ATCC700603, 18 h, read-out: MIC
[20] = Klebsiella pneumoniae, ATCC700603, read-out: MBC
[21] = Pseudomonas aeruginosa, ATCC27853, 18 h, read-out: MIC
[22] = Acinetobacter baumannii, ATCC19606, 18 h, read-out: MIC
[23] = Acinetobacter baumannii, ATCC19606, read-out: MBC
[24] = Escherichia coli, ATCC25922, 18 h, read-out: MIC
[25] = Escherichia coli, ATCC25922, read-out: MBC

(E)-2-(6-((3,4-dichlorobenzyl)oxy)-3,4-dihydro-1(2H)-naphthalenylidene)hydrazine-1-carboxamide [Compound 1P]
≤ 1 µg/mL: MBC [7] | MIC [7]
8 µg/mL: MBC [1] | MBC [2] | MBC [6] | MIC ([11]; 18 h) | MIC ([12]; 18 h)
1 µg/mL: MIC [5]
4 µg/mL: MBC [3] | MBC [4] | MBC [8]
32 µg/mL: MBC [9] | MIC ([9]; 18 h)
2 µg/mL: MIC [1] | MIC [2] | MIC [3] | MIC [4] | MIC [6] | MIC [8]
>32/- µg/mL: MIC ([10]; 18 h)
16 µg/mL: MBC [5] | MBC [11] | MBC [12]

[H]/N=C(\N)NN=C1CCCc2cc(OCc3cccc(F)c3)ccc21 [Compound 1B, (E)-2-(6-((3-fluorobenzyl)oxy)-3,4-dihydronaphthalen-1(2H)-ylidene)hydrazine-1-carboximidamide]
2 µg/mL: MIC [3, 17] | MIC [4, 17] | MIC [5, 17] | MIC [6, 17] | MIC [8, 17]
16 µg/mL: MBC [1, 14] | MBC [2, 16] | MBC [6, 18] | MIC [9, 19] | MBC [9, 20] | MBC [11, 23]
32 µg/mL: MIC [10, 21] | MBC ([10]; Pseudomonas aeruginosa)
4 µg/mL: MIC [1, 13] | MIC [2, 15] | MIC [7, 17] | MBC [7, 18] | MBC [8, 18]
8 µg/mL: MBC [3, 18] | MBC [4, 18] | MBC [5, 18] | MIC [11, 22] | MIC [12, 24] | MBC [12, 25]

[H]/N=C(\N)NN=C1CCCc2cc(OCCCCCCCCCCC)ccc21 [Compound 2H, (E)-2-(6-(undecyloxy)-3,4-dihydronaphthalen-1(2H)-ylidene)hydrazine-1-carboximidamide]
4 µg/mL: MIC [2, 15] | MIC [3, 17] | MIC [5, 17] | MIC [7, 17] | MBC [7, 18] | MIC [8, 17]
> 32 µg/mL: MIC [1, 13] | MIC [9, 19] | MIC [10, 21] | MIC [11, 22] | MIC [12, 24]
2 µg/mL: MIC [4, 17] | MIC [6, 17]
8 µg/mL: MBC [2, 16] | MBC [8, 18]
16 µg/mL: MBC [3, 18] | MBC [4, 18] | MBC [5, 18] | MBC [6, 18]

[H]/N=C(\N)NN=C1CCCc2cc(OCc3ccc(F)cc3F)ccc21 [Compound 1D, (E)-2-(6-((2,4-difluorobenzyl)oxy)-3,4-dihydronaphthalen-1(2H)-ylidene)hydrazine-1-carboximidamide]
4 µg/mL: MIC [2, 15] | MIC [6, 17] | MBC [7, 18] | MBC [8, 18]
2 µg/mL: MIC [1, 13] | MIC [3, 17] | MIC [4, 17] | MIC [5, 17] | MIC [7, 17] | MIC [8, 17]
16 µg/mL: MBC [2, 16] | MIC [9, 19] | MBC [9, 20]
8 µg/mL: MBC [1, 14] | MBC [4, 18] | MIC [11, 22] | MBC [11, 23] | MIC [12, 24] | MBC [12, 25]
32 µg/mL: MBC [3, 18] | MBC [5, 18] | MBC [6, 18] | MIC [10, 21] | MBC ([10]; Pseudomonas aeruginosa)
